# In US7157480B2, “Use of pramipexole to treat amyotrophic lateral sclerosis” (priority 2001, dated 2007):
# Read-outs that look alike come from different tables or passages of the source.
# How the values were obtained:
# caspase 3 [1] = type: cell-based, human
# Procedure: (§1) SH-SY5Y human neuroblastoma cells were obtained from the American Tissue Culture Collection (www.atcc.org) and maintained in culture in a replicating state. For caspase assays and cytochrome C release studies they were grown in T75 flasks with DMEM/high glucose containing 10% fetal bovine serum, antibiotic/antimicotic (100 IU/ml of penicillin, 100 μg/ml of streptomycin sulfate, 0.25 μg/ml of amphotericin B) and 50 μg/ml of uridine and 100 μg/ml of pyruvate in a 5% CO2 atmosphere at 37° C. to approximately full confluence (2×10^7 cell/flask). They were then incubated with 5 mM methylpyridinium iodide (MPP+; Sigma; www.sigma-aldrich.com) or 100 μM 25–35 or 35–25 beta amyioid peptides (Bachem; www.bachem.com) for varying times, then harvested. For cell death studies, the cells were plated into 96 well black-bottom plates and grown for 24 hours in DMEM media before being exposed to toxin.
# (§2) After exposure to MPP+ or beta amyloid peptide, cells were collected in PBS and centrifuged at 450×g for 6 minutes at 4° C. Cell pellets were resuspended in a hypotonic cell lysis buffer [25 mM HEPES, 5 mM MgCl2, 5 mM EDTA, […] and protease inhibitor cocktail (Sigma Chemical)] at a concentration of 2×10^7 cells/100 μl of lysis buffer. Lysates were subjected to four cycles of freezing and thawing. Cell lysates were then centrifuged at 16,000×g for 30 minutes at 4° C. The supernatant fractions were collected, and protein content was measured by Lowry assay (BioRad). 100 μg of protein was used to measure caspase activity in 96 well plates and was assayed in quadruplicate. The activity was measured using the assay buffer and the protocol provided by the manufacturers. (Biomol, caspase 3; Promega, caspases 3 and 9). […] Chromogen absorbance (p-NA) was measured on an OptiMax plate reader or chromogen fluorescence (AMC) on a SpectraMax Gemini plate reader at zero time and after 30 minutes of incubation at 37 degrees to estimate relative caspase activities. Chromogen signal at zero time was subtracted from the readings at 30 minutes.
# (§3) R(+) and S(−) PPX (gifts of Pharmacia Corporation) were obtained as their dihydrochloride salts and dissolved directly into culture media. Bongkreckic acid, an antagonist of the ATP binding site on the adenine nucleotide translocator, was provided as a solution in 1M NH4OH. Aristolochic acid (sodium salt), a phospholipase A2 inhibitor, was obtained from Sigma Chemical Co. In the caspase experiments, drugs were added 1 hour before MPP+ or beta amyloid peptide. In the calcein/cell death experiments, drugs were added 4 hours before MPP+.
# caspase 9 = type: cell-based, human
# Procedure: as §1, §2, §3
# SH-SY5Y cells = type: cell-based, human
# Procedure: as §1
# Cell death was estimated by measuring loss of calcein retention with the “Live-Dead” assay (Molecular Probes; www.molecularprobes.com) in cells grown in 96 well plates and incubated with calcein-AM, according to manufacturer's instructions. Calcein signals were assayed in a SpectraMax Gemini adjustable fluorescent plate reader (Molecular Devices). Calcein fluorescence from cells preincubated with methanol was subtracted from all readings as background. Each assay was performed with 8 wells/condition, which were averaged. 3–8 independent experiments were performed to evaluate a broad range of concentrations of S(−) and R(+) PPX in this paradigm.
# as §3
# oxidative stress [2] = details: 12 SALS subjects
# Procedure: The present study was conducted in two phases. […] These participants underwent aspirin loading with subsequent 2,3-DHBA analysis. After receiving 1.3 grams of aspirin po, blood was drawn 2, 3, and 4 hours later. Serum was separated, frozen and stored at −80 degrees. Aliquots of serum were subsequently coded and blinded for 2,3-DHBA and salicylate assays.
# The subjects received 1.3 grams of aspirin po, and blood was drawn 3 hours later. Following acquisition of these baseline samples, SALS participants began pramipexole therapy. Dosage escalation was performed similar to PD patients with an attempt made to reach 1.5 mg t.i.d.-q.i.d. as the final dose, following a 7 week titration. After each participant was on his/her highest pramipexole dose for three weeks, the aspirin loading study was performed once again. […] Each participant was then offered the opportunity to continue with pramipexole treatment.
# Preparation of serum: 0.9 ml of serum at 4° C. was mixed with 0.2 ml of 1 M perchloric acid and centrifuged at 15,000 rpm for 10 minutes in a refrigerated microcentrifuge.
# Assay for 2,3-DHBA: 20 uL of supernatant were injected in duplicate onto a C18 “Catecholamine” Adsorbosphere column (Alltech) perfused at 0.6 ml/min with buffer consisting of 125 ml/L acetonitrile, 1.5 gn/L of sodium heptane sulfonate, 3 ml/L triethylamine, 100 mg/L of Na2 EDTA with final pH adjusted to 2.8 with phosphoric acid. Detection utilized a CouloChem II flow-through electrochemical detector (ESA, with the following settings: guard cell=+600 mV; E1=−100 mV; E2=+400 mV). 2,3-DHBA eluted at 10–10.5 minutes under these conditions.
# Assay for salicylate: 50 uL of supernatant were injected in duplicate onto a C8 Kromosil HPLC column (Alltech) perfused at 0.8–1.0 ml/min with 70% methanol/30% water/0.5% trifluoroacetic acid. Salicylate eluted at 6–7 minutes under these conditions and was detected by ultraviolet absorption at 315 nm.
# [3] = ALS subjects who completed dose escalation, 3–6 mg per day
# Procedure: Following acquisition of these baseline samples, SALS participants began pramipexole therapy. Dosage escalation was performed similar to PD patients with an attempt made to reach 1.5 mg t.i.d.-q.i.d. as the final dose, following a 7 week titration.
# [4] = tested on: D2 family dopamine receptors; details: cited from earlier work
# caspase 3 [5] = details: SH-SY5Y
# Procedure: as §1, with “For cell death studies, the cells were plated into 96 well black-bottom plates and grown for 24 hours in DMEM media before being exposed to toxin.” left out
# After exposure to MPP+ or beta amyloid peptide, cells were collected in PBS and centrifuged at 450×g for 6 minutes at 4° C. […] The supernatant fractions were collected, and protein content was measured by Lowry assay (BioRad). […] The activity was measured using the assay buffer and the protocol provided by the manufacturers. […] Chromogen absorbance (p-NA) was measured on an OptiMax plate reader or chromogen fluorescence (AMC) on a SpectraMax Gemini plate reader at zero time and after 30 minutes of incubation at 37 degrees to estimate relative caspase activities. Chromogen signal at zero time was subtracted from the readings at 30 minutes. […]
# [6] = relative to S(−) pramipexole; cited from earlier work
# [7] = 8 week toxicology study in mice, pathology of major organs; type: in vivo; details: drinking water, 8 weeks
# Procedure: Toxicology studies have also been conducted and no evidence of adverse effects were detected. In particular, an 8 week toxicology study was performed in the mice given R(+) PPX in their drinking water.
# oxidative stress [8] = experiment: MPTP-induced forebrain oxidative stress (2,3-DHBA) in mice; type: in vivo, C57BL/6 mice; details: MPTP 30 mg/kg s.c.
# Procedure: Male C57BL/6 mice received daily R(+) pramipexole dihydrochloride in drinking water for 8 weeks at doses calculated to provide 0, 10, 30 or 100 mg/kg/day. On the day of the study the mice were injected with 30 mg/kg s.c. of the neurotoxin N-methyl-4-phenyl-1,2,3,6-tetrahydropyridine (MPTP) to increase oxidative stress in the brain. One hour later the mice were injected with 100 mg/kg i.p. of sodium salicylate. One hour after salicylate injection the mice were killed and forebrains analyzed for 2,3-dihydroxybenzoic acid (2,3-DHBA) content.
compound,measurement,setting,value
"COc1cccc2c1cc([N+](=O)[O-])c1c(C(=O)O)cc3c(c12)OCO3 [aristolochic acid, Aristolochic acid]",MPP+-induced caspase 3 activation,"caspase 3 [1]; SH-SY5Y, 5 mM MPP+ 24 hours, 25 μM aristolochic acid, p<0.05 vs MPP+",prevented increases
same,MPP+-induced increases in caspase 9 activity,"caspase 9; SH-SY5Y, 5 mM MPP+ 8 hr, 25 μM aristolochic acid",blocked
"C[n+]1ccc(-c2ccccc2)cc1.[I-] [MPP+, methylpyridinium iodide]",reduction of calcein uptake,"SH-SY5Y cells; SH-SY5Y, 5 mM MPP+ alone, 24 hours",about 60%
same,increase of caspase 3 activity,"caspase 3 [1]; SH-SY5Y, 5 mM MPP+, by 24 hours",about 2 fold
"CCCN[C@H]1CCc2nc(N)sc2C1 [S(−) PPX, S(−)-2-amino-4,5,6,7-tetrahydro-6-propylaminobenzathiazole]","calcein retention in the presence of MPP+, enantiomer comparison",SH-SY5Y cells,greater calcein retention than R(+) PPX
same,calcein uptake after MPP+,SH-SY5Y cells,substantially restored
same,"mean reduction of serum 2,3-DHBA concentration","oxidative stress [2]; 3–6 mg per day oral, pre vs post treatment, 3 hours after 1.3 grams aspirin, p=0.015",about 45%
same,"average reduction of serum 2,3-DHBA normalized to salicylate levels","oxidative stress [2]; 3–6 mg per day oral, pre vs post treatment, p=0.010",59%
same,"individual serum levels of 2,3-DHBA pre vs post treatment",oxidative stress [2]; without exception,reduced
same,MPP+-induced caspase 3 activation,caspase 3 [1],suppressed
same,MPP+-induced increases in caspase 9 activity,caspase 9,blocked
same,tolerability,[3],well tolerated
same,dopamine agonist activity,[4],potent agonist
same,reduction of the increases in caspase 3 activity following BA 25–35 peptide,caspase 3 [5]; 100 μM beta amyloid 25–35,about 70%
same,effect on caspase 3 activity by itself,caspase 3 [5]; drug alone without toxin,no suppressive effect
"CCCN[C@@H]1CCc2nc(N)sc2C1.Cl.Cl [R(+) PPX, R(+)-2-amino-4,5,6,7-tetrahydro-6-propylaminobenzathiazole dihydrochloride]",potency to produce the side effects that result from the use of S(−) pramipexole,[6],≤ 1%
same,"calcein retention in the presence of MPP+, enantiomer comparison","SH-SY5Y cells; 3 nM PPX, 5 mM MPP+ 24 hours, p=0.035",greater calcein retention than S(−) PPX
same,calcein uptake after MPP+,"SH-SY5Y cells; SH-SY5Y, 5 mM MPP+ 24 hours, 30 nM PPX added 4 hours before, effect retained through 30 μM",substantially restored
same,pathological examination of all major organs,[7],no lesions were found
same,MPP+-induced caspase 3 activation,"caspase 3 [1]; SH-SY5Y, 5 mM MPP+ 24 hours, 1 mM PPX added 1 hour before, p<0.05 vs MPP+",suppressed
same,MPP+-induced increases in caspase 9 activity,"caspase 9; SH-SY5Y, 5 mM MPP+ 8 hr, 1 mM PPX",blocked
same,"forebrain oxidative stress produced by MPTP (2,3-DHBA)",oxidative stress [8]; 30 mg/kg/day in drinking water for 8 weeks,significantly reduced
same,"forebrain oxidative stress produced by MPTP (2,3-DHBA)",oxidative stress [8]; 100 mg/kg/day in drinking water for 8 weeks,significantly reduced
same,dopamine agonist activity,[4],very little dopamine agonist activity
"CO[C@H](C/C=C\C=C\CC/C=C/C[C@H](C)/C=C/C(=C\C(=O)O)CC(=O)O)/C(C)=C\C=C(/C)C(=O)O [bongkreckic acid, Bongkreckic acid]",MPP+-induced caspase 3 activation,"caspase 3 [1]; SH-SY5Y, 5 mM MPP+ 24 hours, 250 μM bongkreckic acid, p<0.05 vs MPP+",blocked
same,MPP+-induced increases in caspase 9 activity,"caspase 9; SH-SY5Y, 5 mM MPP+ 8 hr, 250 μM bongkreckic acid",blocked
